Measurements from patent US6900041B2, “Methods and compositions for the treatment of inflammatory diseases” (Reddy US Therapeutics Inc., priority 2000, dated 2005).

Key:
Format in all cases: cell-based, human
[1] = test system: MCP-1 production by endothelial cells; assay: MCP-1 ELISA of endothelial cell media; conditions: 24 h
Method: MCP-1 ELISA was carried out using Quantikine Human MCP-1 kit as described by manufacturer (R&D Systems). Mouse anti-human MCP-1 was used as the capture antibody and HRP-conjugated goat anti-human MCP-1 was used as the detection antibody. Culture media were incubated with capture antibody (in 96 well) for 2 h at room temperature. Wells were washed three times with wash buffer (0.05% Tween-20 in PBS followed by incubation with detection antibody for 2 h at room temperature. Color development was read at 450 nm in a microplate reader.
Endothelial cells, as grown in Example 1 and 2, were transfected with oligonucleotides using Cytofectin transfection reagent. […] IL-6 and MCP-1 were determined by ELISA, as shown in Examples 2 and 3.
Inhibition of GSK-3β led to […] inflammatory gene expression in endothelial cells. Overexpression of GSK-3β protein inhibited inducible inflammatory gene expression in endothelial cells. Full length GSK-3β cDNA was cloned into a retroviral vector pLIB. Empty vectors or vectors carrying alkaline phosphatase were used as controls. Retroviral particles carrying different genes were generated in HEK-293 cells. […] IL-6 and MCP-1 were determined by ELISA as described in Examples 2 and 3.

VCAM-1 expression = assay: VCAM-1 ELISA on endothelial cell monolayers; conditions: 24 h
Method: HMVEC cells were treated with control medium or medium containing 10 ng/ml TNFα or 100 μg/ml glycated-HSA for 24 hrs. All treatments and controls were carried out in serum free media containing 0.2% albumin. Following treatment, cell media were collected and used for IL-6, MCP-1 ELISA and cells were used for VCAM-1 ELISA which was conducted in situ without lysis. Inhibition of GSK-3β altered inflammation-related adhesion molecule expression. VCAM-1 is an endothelial adhesion molecule that facilitates monocyte infiltration into the blood vessel (3). Cells were treated as described in Example 2. Endothelial cells were exposed to KCl (10 mM, as a control) or with TNFα (10 ng/ml); LiCl (10 mM) alone and with TNFα (10 ng/ml), insulin (1 nM) alone or with TNFα (10 ng/ml). Following incubation for 24 h, […] assayed for VCAM-1 by ELISA. VCAM-1 ELISA was performed on monolayers of endothelial cells in 96 well plates. Wells were incubated with 100 μl of 1:1000 dilution of primary antibody (polyclonal goat anti-human VCAM-1 from R&D Systems) in medium containing 10% FBS. A rabbit anti-goat IgG-HRP was used as secondary antibody and ELISA was performed as described for MCP-1 above.

GSK-3β expression [2] = assay: GSK-3β immunoblotting (Western blot, densitometry) of endothelial cells; conditions: 24 hours
Method: GSK-3β-immunoblotting analyses of endothelial cells treated with different inflammatory and non-inflammatory agents were performed.
Cells were treated as taught in Examples 1 and 2. Endothelial cells were incubated with an agent for 24 hours. […] After incubation, the cells were washed, lysed and separated by polyacrylamide gel electrophoresis. Western blotting was performed, using antibody directed to GSK-3β, and detected.

[3] = test system: IL-6 production by endothelial cells; assay: IL-6 ELISA of endothelial cell media
Method: Human aortic (HAEC) and microvascular (HMVEC) endothelial cells (Clonetics) were cultured and subcultured according to manufacturer in growth medium (Clonetics): basal medium containing hEGF, hydrocortisone, VEGF, HFGF-B (w/heparin), long R3-IGF-1, Ascorbic acid, gentamicin/amphotericin and 5% FBS. These cell were allowed to reach >90% confluency before being subjected to experimental treatments. […] Tumor necrosis factor α was from R&D Systems. Cells were incubated with 20 mM lithium (as LiCl or with 20 mM KCl as control) in the presence or absence of TNFα (10 ng/ml). Insulin (1 nM) was also used to inhibit GSK-3β.
HMVEC cells were treated with control medium or medium containing 10 ng/ml TNFα or 100 μg/ml glycated-HSA for 24 hrs. All treatments and controls were carried out in serum free media containing 0.2% albumin. […]
IL-6 ELISA was carried out using human IL-6 DuoSet ELISA development kit as described by manufacturer (R&D Systems). […] Color development was read at 450 nm in a microplate reader. […]
Following 24 h transfection, the cells were incubated for 24 h with medium alone or medium containing 300 μg/ml glycated albumin (AGE) or medium containing 10 ng/ml TNF-α. IL-6 and MCP-1 were determined by ELISA, as shown in Examples 2 and 3.
Empty vectors or vectors carrying alkaline phosphatase were used as controls. […] IL-6 and MCP-1 were determined by ELISA as described in Examples 2 and 3.

GSK-3β promoter = assay: GSK-3β promoter-luciferase reporter assay in transfected BAEC; conditions: TNFα 10 ng/ml, 24-48 hours
Method: pGL3-GSK3B−1478/+534 was transfected into bovine aortic endothelial cells (BAEC) by electroporation. Transfected cells were aliquoted into 96 well plates and allowed to recover in full media for 16-24 hours. […] Luciferase activity was measured in cell lysates using Bright-Glo Luciferase Assay System (Promega).

GSK-3β expression [4] = assay: RT-PCR of GSK-3β in endothelial cells; conditions: endothelial cells (HMVEC); TNFα 10 ng/ml or AGE 100 μg/ml; 8 hours; vs control
Method: HMVEC cells were treated with control medium or medium containing 10 ng/ml TNFα or 100 μg/ml glycated-HSA for 24 hrs. All treatments and controls were carried out in serum free media containing 0.2% albumin. Cells were collected into cold PBS using a cell scraper and used for RNA isolation.
Endothelial cells were incubated in media alone (control) or media containing TNFα (10 ng/ml) or AGE (100 μg/ml) for 8 hours. Poly (A) RNA was isolated and used as template for RT-PCR. Poly (A)+RNA was isolated from confluent cultures of HMVEC incubated under various conditions, using the Micropoly (A) pure kit (Ambion). RT-PCR with Superscript First-strand synthesis system (BRL) was performed according to the manufacture's instructions. […] 2: [sequence], representing a 406 bp region (from 519-925) in the coding sequence of GSK-3β (GSK-3β GenBank Accession No. L33801). […] PCR was carried out by using an initial denaturing step at 96° C. for 5 min, then cycle 35-times (or 25 times for quantitative RT-PCR) between 96° C. for 1 min, 58° C. for 45 sec, and 72° C. for 2 min. […] Samples (10 μl) were analyzed on a 1% agarose gel and stained with ethidium bromide and visualized by UV Tran illuminator (UIVP).

**Q.** What does the source list for insulin: known inhibitor of GSK-3β?
**A.** increase of MCP-1 ([1]; added together with AGE 300 μg/ml, LiCl 10 mM or insulin 1 nM): approximately 2.8 fold; increase of MCP-1 secretion ([1]; agent alone (LiCl 10 mM, insulin 1 nM), vs 10 mM KCl (about 400 pg/ml)): about 50%; effect on VCAM expression (VCAM-1 expression; agent alone (LiCl 10 mM, insulin 1 nM)): did not significantly affect; effect on TNFα-induced VCAM-1 expression (VCAM-1 expression; insulin 1 nM together with TNFα 10 ng/ml, vs TNFα alone): almost doubled the effect of TNFα alone

**Q.** For VEGF, which “induction of GSK-3β expression” value (GSK-3β expression [2]; VEGF 10 ng/ml) is on record?
**A.** The value was about 2 fold.

**Q.** Which results are given for TNFα?
**A.** increase in IL-6 secretion ([3]; TNFα 10 ng/ml alone, 24 h): greater than 10 fold; induction of IL-6 expression ([3]; endothelial cells transduced with control vector): 10 fold; decrease of GSK-3β promoter activity (luciferase) (GSK-3β promoter): greater than 50%; VCAM-1 expression, % of basal levels (VCAM-1 expression; TNFα 10 ng/ml alone): 340%; decrease of GSK-3β expression (GSK-3β expression [2]; TNF-α 10 ng/ml, AGE 300 μg/ml, oxidized LDL 100 μg/ml, IL-1β 1 ng/ml): 70%; intensity of the 406 bp GSK-3β RT-PCR band (GSK-3β expression [4]): decreased
